According to ChEMBL document CHEMBL5303763, “Data for DCP probe BI-3802” (2023):
Blank lines part the entries; values can stand above or below the compound they belong to.

What was measured:
[1] = biological target: Tyrosine-protein kinase ABL1 (Homo sapiens) (UniProt P00519); test: ABL1 Invitrogen Lab (UK) kinase screen (BI); details: Compound concentration 1.0 uM
[2] = biological target: Serine/threonine-protein kinase Chk1 (Homo sapiens) (UniProt O14757); test: CHEK1 Invitrogen Lab (UK) kinase screen (BI); details: Compound concentration 1.0 uM
[3] = biological target: Leucine-rich repeat serine/threonine-protein kinase 2 (Homo sapiens) (UniProt Q5S007); test: LRRK2 Invitrogen Lab (UK) kinase screen (BI); details: Compound concentration 1.0 uM
[4] = biological target: Dual specificity mitogen-activated protein kinase kinase 1 (Homo sapiens) (UniProt Q02750); test: MAP2K1 Invitrogen Lab (UK) kinase screen (BI); details: Compound concentration 1.0 uM
[5] = biological target: Mitogen-activated protein kinase 14 (Homo sapiens) (UniProt Q16539); test: MAPK14 Invitrogen Lab (UK) kinase screen (BI); details: Compound concentration 1.0 uM
[6] = biological target: MAP kinase-activated protein kinase 3 (Homo sapiens) (UniProt Q16644); test: MAPKAPK3 Invitrogen Lab (UK) kinase screen (BI); details: Compound concentration 1.0 uM
MAP kinase-activated protein kinase 3 (Homo sapiens), sequence (Q16644 whole entry, looked up): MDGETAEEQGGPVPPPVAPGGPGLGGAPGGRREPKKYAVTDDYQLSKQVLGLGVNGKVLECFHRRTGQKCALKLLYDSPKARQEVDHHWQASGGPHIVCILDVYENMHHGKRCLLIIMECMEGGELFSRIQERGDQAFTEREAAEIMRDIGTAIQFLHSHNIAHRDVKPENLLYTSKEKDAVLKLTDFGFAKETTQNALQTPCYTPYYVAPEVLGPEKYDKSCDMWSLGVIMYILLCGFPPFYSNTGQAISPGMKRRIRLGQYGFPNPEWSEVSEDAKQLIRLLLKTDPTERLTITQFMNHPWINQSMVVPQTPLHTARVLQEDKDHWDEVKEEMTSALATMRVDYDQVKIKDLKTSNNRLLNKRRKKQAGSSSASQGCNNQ

[7] = biological target: BDNF/NT-3 growth factors receptor (Homo sapiens) (UniProt Q16620); test: NTRK2 Invitrogen Lab (UK) kinase screen (BI); details: Compound concentration 1.0 uM
[8] = biological target: cAMP-dependent protein kinase catalytic subunit alpha (Homo sapiens) (UniProt P17612); test: PRKACA Invitrogen Lab (UK) kinase screen (BI); details: Compound concentration 1.0 uM
[9] = biological target: Proto-oncogene tyrosine-protein kinase receptor Ret (Homo sapiens) (UniProt P07949); test: RET Invitrogen Lab (UK) kinase screen (BI); details: Compound concentration 1.0 uM
[10] = biological target: Rho-associated protein kinase 2 (Homo sapiens) (UniProt O75116); test: ROCK2 Invitrogen Lab (UK) kinase screen (BI); details: Compound concentration 1.0 uM
[11] = biological target: Ribosomal protein S6 kinase alpha-5 (Homo sapiens) (UniProt O75582); test: RPS6KA5 Invitrogen Lab (UK) kinase screen (BI); details: Compound concentration 1.0 uM
[12] = biological target: Proto-oncogene tyrosine-protein kinase Src (Homo sapiens) (UniProt P12931); test: SRC Invitrogen Lab (UK) kinase screen (BI); details: Compound concentration 1.0 uM
[13] = biological target: SRSF protein kinase 2 (Homo sapiens) (UniProt P78362); test: SRPK2 Invitrogen Lab (UK) kinase screen (BI); details: Compound concentration 1.0 uM
SRSF protein kinase 2 (Homo sapiens), sequence (P78362 whole entry, looked up): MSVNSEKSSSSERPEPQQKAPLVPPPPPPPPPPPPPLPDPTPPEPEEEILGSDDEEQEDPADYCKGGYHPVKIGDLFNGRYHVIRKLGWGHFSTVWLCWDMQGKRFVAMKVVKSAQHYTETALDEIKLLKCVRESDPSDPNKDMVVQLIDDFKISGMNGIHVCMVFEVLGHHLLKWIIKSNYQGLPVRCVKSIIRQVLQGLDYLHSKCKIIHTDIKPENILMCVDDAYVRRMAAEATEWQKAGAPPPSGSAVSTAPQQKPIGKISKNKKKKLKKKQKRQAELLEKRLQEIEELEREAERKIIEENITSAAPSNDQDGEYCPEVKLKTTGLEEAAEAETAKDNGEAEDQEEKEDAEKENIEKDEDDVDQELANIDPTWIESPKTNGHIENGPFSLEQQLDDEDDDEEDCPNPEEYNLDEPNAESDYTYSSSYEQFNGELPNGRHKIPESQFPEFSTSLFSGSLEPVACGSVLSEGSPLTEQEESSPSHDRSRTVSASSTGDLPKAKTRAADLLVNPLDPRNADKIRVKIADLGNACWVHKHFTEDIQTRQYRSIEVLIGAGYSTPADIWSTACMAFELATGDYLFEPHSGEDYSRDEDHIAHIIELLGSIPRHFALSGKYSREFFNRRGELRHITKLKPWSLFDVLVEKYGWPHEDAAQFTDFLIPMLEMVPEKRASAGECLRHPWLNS

[14] = biological target: T1, 5-hydroxytryptamine receptor 1A (Homo sapiens) (UniProt P08908); details: Compound concentration 10.0 uM
T1 sequence (whole entry): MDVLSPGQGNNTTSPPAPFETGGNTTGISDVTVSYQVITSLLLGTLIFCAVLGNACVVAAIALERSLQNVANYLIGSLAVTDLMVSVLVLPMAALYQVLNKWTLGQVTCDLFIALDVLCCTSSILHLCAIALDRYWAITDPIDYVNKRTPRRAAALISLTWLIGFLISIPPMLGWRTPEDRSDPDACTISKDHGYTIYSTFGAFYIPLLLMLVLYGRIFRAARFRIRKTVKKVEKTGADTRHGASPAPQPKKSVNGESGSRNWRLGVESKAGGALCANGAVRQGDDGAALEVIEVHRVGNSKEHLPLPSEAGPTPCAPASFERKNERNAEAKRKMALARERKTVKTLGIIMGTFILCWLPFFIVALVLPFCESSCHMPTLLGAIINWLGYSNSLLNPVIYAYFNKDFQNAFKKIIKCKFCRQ

[15] = biological target: 5-hydroxytryptamine receptor 7 (Homo sapiens) (UniProt P34969); details: Compound concentration 10.0 uM
5-hydroxytryptamine receptor 7 (Homo sapiens), sequence (P34969 whole entry): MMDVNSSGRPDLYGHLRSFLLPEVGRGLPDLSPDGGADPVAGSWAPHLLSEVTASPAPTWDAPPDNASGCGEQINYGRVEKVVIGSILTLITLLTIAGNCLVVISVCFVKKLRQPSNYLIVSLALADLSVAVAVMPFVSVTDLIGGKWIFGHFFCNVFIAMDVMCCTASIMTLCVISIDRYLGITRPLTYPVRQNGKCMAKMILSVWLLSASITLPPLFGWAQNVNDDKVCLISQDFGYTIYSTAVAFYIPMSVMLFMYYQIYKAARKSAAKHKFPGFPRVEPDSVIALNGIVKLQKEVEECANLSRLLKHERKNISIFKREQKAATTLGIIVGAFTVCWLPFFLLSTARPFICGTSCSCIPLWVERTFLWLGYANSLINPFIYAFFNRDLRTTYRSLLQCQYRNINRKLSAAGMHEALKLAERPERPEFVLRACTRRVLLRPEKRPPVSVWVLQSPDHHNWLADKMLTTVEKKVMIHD

[16] = biological target: Mu-type opioid receptor (Homo sapiens) (UniProt P35372); details: Compound concentration 10.0 uM
Mu-type opioid receptor (Homo sapiens), sequence (P35372 whole entry): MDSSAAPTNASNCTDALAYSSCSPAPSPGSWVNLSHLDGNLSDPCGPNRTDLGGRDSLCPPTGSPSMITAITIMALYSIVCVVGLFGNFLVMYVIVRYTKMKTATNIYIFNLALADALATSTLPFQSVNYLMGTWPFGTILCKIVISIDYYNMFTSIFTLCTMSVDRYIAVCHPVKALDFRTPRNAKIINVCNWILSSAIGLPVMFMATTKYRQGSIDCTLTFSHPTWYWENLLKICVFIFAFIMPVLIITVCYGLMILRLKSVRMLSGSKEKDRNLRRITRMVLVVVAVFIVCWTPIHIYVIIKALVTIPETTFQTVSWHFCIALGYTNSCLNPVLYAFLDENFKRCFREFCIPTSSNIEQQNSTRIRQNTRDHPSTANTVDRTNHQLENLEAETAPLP

[17] = biological target: Delta-type opioid receptor (Homo sapiens) (UniProt P41143); details: Compound concentration 10.0 uM
Delta-type opioid receptor (Homo sapiens), sequence (P41143 whole entry): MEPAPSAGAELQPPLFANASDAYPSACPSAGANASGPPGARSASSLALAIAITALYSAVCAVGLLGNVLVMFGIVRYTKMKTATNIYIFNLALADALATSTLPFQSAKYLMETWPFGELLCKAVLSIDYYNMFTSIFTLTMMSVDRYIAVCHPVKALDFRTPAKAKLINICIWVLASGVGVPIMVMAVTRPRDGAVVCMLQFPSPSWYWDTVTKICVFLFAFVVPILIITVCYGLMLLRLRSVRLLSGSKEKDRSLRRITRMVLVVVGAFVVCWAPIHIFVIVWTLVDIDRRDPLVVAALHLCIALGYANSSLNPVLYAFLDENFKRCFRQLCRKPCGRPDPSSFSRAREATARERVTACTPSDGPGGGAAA

[18] = biological target: Histamine H3 receptor (Homo sapiens) (UniProt Q9Y5N1); details: Compound concentration 10.0 uM
Histamine H3 receptor (Homo sapiens), sequence (Q9Y5N1 whole entry): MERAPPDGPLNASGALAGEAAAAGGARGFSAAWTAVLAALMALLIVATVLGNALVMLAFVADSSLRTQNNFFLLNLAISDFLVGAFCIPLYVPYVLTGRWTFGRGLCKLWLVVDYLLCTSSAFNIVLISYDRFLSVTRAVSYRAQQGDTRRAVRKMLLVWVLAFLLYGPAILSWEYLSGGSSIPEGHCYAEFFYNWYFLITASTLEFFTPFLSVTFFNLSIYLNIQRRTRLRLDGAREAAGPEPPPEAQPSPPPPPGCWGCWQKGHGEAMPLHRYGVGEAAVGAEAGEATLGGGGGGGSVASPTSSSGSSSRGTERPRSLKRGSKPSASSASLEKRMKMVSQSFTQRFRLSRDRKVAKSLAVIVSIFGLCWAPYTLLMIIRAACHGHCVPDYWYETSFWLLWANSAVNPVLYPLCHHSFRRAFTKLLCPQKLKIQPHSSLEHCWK

[19] = biological target: T2, Alpha-2A adrenergic receptor (Homo sapiens) (UniProt P08913); details: Compound concentration 10.0 uM
T2 sequence (whole entry): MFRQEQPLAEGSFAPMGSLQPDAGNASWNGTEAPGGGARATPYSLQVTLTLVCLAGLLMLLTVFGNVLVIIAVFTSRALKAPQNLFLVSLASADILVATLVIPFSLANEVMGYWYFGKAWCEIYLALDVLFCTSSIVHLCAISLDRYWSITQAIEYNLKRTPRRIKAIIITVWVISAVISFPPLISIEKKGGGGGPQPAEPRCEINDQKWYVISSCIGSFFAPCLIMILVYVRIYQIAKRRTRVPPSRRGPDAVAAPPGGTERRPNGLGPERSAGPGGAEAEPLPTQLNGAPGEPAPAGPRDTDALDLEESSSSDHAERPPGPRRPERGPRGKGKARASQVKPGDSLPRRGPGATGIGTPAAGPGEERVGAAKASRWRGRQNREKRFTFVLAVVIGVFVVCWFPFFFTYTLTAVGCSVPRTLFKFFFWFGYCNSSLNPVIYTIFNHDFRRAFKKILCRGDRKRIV

[20] = biological target: Beta-2 adrenergic receptor (Homo sapiens) (UniProt P07550); details: Compound concentration 10.0 uM
Beta-2 adrenergic receptor (Homo sapiens), sequence (P07550 whole entry, looked up): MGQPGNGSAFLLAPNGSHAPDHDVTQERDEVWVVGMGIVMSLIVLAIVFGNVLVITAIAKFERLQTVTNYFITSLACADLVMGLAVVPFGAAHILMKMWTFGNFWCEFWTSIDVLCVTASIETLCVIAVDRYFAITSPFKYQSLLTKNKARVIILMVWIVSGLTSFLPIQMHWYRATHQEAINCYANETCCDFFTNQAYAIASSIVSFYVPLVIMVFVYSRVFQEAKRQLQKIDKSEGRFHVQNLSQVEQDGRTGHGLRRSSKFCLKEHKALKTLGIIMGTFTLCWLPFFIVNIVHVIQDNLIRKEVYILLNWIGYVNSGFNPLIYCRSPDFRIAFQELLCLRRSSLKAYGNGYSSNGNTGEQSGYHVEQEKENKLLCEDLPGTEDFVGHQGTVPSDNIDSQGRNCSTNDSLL

[21] = biological target: T3, Muscarinic acetylcholine receptor M2 (Homo sapiens) (UniProt P08172); details: Compound concentration 10.0 uM
T3 sequence (whole entry): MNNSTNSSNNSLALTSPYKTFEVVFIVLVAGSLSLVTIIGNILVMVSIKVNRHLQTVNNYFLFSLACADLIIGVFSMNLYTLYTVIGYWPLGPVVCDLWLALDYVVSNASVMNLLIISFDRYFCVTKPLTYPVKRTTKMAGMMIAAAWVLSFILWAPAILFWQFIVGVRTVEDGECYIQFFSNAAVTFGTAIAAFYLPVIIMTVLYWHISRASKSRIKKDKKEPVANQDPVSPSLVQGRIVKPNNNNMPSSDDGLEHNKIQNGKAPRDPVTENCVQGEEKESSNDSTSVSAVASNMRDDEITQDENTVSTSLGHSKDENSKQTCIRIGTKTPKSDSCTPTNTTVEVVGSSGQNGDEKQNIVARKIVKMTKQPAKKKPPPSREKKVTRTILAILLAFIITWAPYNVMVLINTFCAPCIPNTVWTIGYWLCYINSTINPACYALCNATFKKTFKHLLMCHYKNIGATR

[22] = biological target: Alpha-1D adrenergic receptor (Homo sapiens) (UniProt P25100); details: Compound concentration 10.0 uM
Alpha-1D adrenergic receptor (Homo sapiens), sequence (P25100 whole entry): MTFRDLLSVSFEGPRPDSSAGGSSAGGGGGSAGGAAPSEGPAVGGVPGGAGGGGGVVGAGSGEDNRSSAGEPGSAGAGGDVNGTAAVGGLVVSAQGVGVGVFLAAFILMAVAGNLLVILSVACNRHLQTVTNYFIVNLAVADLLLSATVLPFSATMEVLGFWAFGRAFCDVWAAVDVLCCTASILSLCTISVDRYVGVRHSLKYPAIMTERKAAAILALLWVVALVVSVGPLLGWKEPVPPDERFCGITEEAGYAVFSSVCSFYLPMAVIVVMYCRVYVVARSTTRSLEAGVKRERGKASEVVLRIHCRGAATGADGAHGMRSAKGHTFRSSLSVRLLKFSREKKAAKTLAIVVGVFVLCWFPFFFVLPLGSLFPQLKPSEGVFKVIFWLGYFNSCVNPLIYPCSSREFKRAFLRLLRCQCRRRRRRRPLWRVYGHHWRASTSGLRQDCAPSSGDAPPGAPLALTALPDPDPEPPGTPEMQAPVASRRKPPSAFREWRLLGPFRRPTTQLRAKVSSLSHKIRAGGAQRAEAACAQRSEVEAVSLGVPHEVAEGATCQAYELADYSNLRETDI

[23] = biological target: Sigma intracellular receptor 2 (Homo sapiens) (UniProt Q5BJF2); details: Compound concentration 10.0 uM
Sigma intracellular receptor 2 (Homo sapiens), sequence (Q5BJF2 whole entry): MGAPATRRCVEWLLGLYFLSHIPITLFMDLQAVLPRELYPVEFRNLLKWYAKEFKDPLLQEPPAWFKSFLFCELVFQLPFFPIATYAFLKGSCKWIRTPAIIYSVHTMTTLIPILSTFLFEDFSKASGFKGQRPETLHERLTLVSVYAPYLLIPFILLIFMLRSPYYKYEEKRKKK

[24] = biological target: Sigma non-opioid intracellular receptor 1 (Homo sapiens) (UniProt Q99720); details: Compound concentration 10.0 uM
Sigma non-opioid intracellular receptor 1 (Homo sapiens), sequence (Q99720 whole entry): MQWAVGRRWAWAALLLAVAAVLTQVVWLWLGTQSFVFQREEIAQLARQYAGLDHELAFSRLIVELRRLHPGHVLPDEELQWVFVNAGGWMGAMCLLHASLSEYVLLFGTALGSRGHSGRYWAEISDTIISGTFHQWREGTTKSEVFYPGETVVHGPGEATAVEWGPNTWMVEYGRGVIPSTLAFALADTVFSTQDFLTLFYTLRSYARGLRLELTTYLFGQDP

[25] = biological target: B-cell CLL/lymphoma 6 member B protein (Homo sapiens, UniProt Q8N143); test: SPR (BCL6B), Ontario institute for cancer research
B-cell CLL/lymphoma 6 member B protein, sequence (Q8N143 whole entry): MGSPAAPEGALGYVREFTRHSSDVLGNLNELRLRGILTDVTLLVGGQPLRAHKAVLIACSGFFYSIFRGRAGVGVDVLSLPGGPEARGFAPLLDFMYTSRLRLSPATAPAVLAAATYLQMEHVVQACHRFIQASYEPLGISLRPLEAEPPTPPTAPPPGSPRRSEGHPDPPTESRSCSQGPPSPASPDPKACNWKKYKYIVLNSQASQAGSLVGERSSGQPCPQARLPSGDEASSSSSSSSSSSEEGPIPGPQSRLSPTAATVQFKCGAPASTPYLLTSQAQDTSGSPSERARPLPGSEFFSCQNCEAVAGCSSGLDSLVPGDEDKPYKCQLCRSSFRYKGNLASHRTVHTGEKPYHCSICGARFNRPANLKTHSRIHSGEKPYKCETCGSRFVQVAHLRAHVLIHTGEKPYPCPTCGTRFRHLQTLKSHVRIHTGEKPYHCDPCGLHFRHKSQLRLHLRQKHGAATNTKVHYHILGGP

[26] = system: Voltage-gated K+ channel Kv1 (Rattus norvegicus); test: K+/VOLT/RA Eurofins SafetyScreen44 (BI); details: rat brain, probe [125I]a-dendrotoxin, read-out: % Ctrl

residual activity [1]: 103%
residual activity [2]: 89%
residual activity [3]: 78%
residual activity [4]: 71%
residual activity [5]: 100%
residual activity [6]: 97%
residual activity [7]: 99%
residual activity [8]: 91%
residual activity [9]: 101%
residual activity [10]: 100%
residual activity [11]: 96%
residual activity [12]: 105%
residual activity [13]: 106%
inhibition [14]: 27%
inhibition [15]: 15.5%
inhibition [16]: 24.5%
inhibition [17]: 13.3%
inhibition [18]: 12.7%
inhibition [19]: 5.49%
inhibition [20]: -8.13%
inhibition [21]: -5.1%
inhibition [22]: -7.81%
inhibition [23]: 17.1%
inhibition [24]: 19.9%
Structure (SMILES): CNC(=O)COc1cc2cc(Nc3nc(N4C[C@H](C)C[C@H](C)C4)ncc3Cl)ccc2n(C)c1=O

Kd [25]: No binding
Structure (SMILES): C[C@@H]1C[C@H](C)CN(c2ncc(Cl)c(Nc3ccc4c(c3)cc(OC(C)(C)C(=O)O)c(=O)n4C)n2)C1
activity at 10 µM [26]: 97% (not active)
